#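 Cultured in 96-well plates, cells were exposed to test compound for 48 hours across five concentrations. At the TGI there is no net growth.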
# Assays:
# Test in all cases: NCI tumour cell line growth inhibition, 48 h
# 786-0 renal = system: 786-0 renal
# OVCAR-4 ovarian = system: OVCAR-4 ovarian
# NCI-H226 lung = system: NCI-H226 lung
# M14 melanoma = system: M14 melanoma
# HL-60(TB) leukemia = system: HL-60(TB) leukemia
# HCT-15 colon = system: HCT-15 colon
# DMS 273 small cell lung = system: DMS 273 small cell lung
# SK-MEL-5 melanoma = system: SK-MEL-5 melanoma
# U251 CNS = system: U251 CNS
# SN12C renal = system: SN12C renal
# DLD-1 colon = system: DLD-1 colon
# HCC-2998 colon = system: HCC-2998 colon
# SK-OV-3 ovarian = system: SK-OV-3 ovarian
# A498 renal = system: A498 renal
# OVCAR-3 ovarian = system: OVCAR-3 ovarian
# KM12 colon = system: KM12 colon
# OVCAR-8 ovarian = system: OVCAR-8 ovarian
# EKVX NSCLC = system: EKVX NSCLC
# NCI-H460 lung = system: NCI-H460 lung
# RXF-631 renal = system: RXF-631 renal
# ACHN renal = system: ACHN renal
# NCI-H522 lung = system: NCI-H522 lung
# UO-31 renal = system: UO-31 renal
# SNB-19 CNS = system: SNB-19 CNS
# NCI-H23 lung = system: NCI-H23 lung
# OVCAR-5 ovarian = system: OVCAR-5 ovarian
# XF 498 CNS = system: XF 498 CNS
# K-562 leukemia = system: K-562 leukemia
# SF-539 CNS = system: SF-539 CNS
# UACC-257 melanoma = system: UACC-257 melanoma
# A549 NSCLC = system: A549 NSCLC
# M19-MEL melanoma = system: M19-MEL melanoma
# HCT-116 colon = system: HCT-116 colon
# HT29 colon = system: HT29 colon
# UACC-62 melanoma = system: UACC-62 melanoma
# LOX IMVI melanoma = system: LOX IMVI melanoma
# DMS 114 small cell lung = system: DMS 114 small cell lung
# SW-620 colon = system: SW-620 colon
# MOLT-4 leukemia = system: MOLT-4 leukemia
# IGROV1 ovarian = system: IGROV1 ovarian
# SK-MEL-2 melanoma = system: SK-MEL-2 melanoma
# SR leukemia = system: SR leukemia
# SF-268 CNS = system: SF-268 CNS
# SK-MEL-28 melanoma = system: SK-MEL-28 melanoma
# COLO 205 colon = system: COLO 205 colon
# LXFL 529 NSCLC = system: LXFL 529 NSCLC
# RPMI-8226 leukemia = system: RPMI-8226 leukemia
# TK-10 renal = system: TK-10 renal
# CAKI-1 renal = system: CAKI-1 renal
# HOP-62 NSCLC = system: HOP-62 NSCLC
# SF-295 CNS = system: SF-295 CNS
# KM20L2 colon = system: KM20L2 colon
# SNB-75 CNS = system: SNB-75 CNS
# SNB-78 CNS = system: SNB-78 CNS
# RXF 393 renal = system: RXF 393 renal
# MALME-3M melanoma = system: MALME-3M melanoma
# BT-549 breast = system: BT-549 breast
# HOP-92 NSCLC = system: HOP-92 NSCLC
# CCRF-CEM leukemia = system: CCRF-CEM leukemia
# MCF7 breast = system: MCF7 breast
# HOP-18 NSCLC = system: HOP-18 NSCLC
# MDA-MB-231 breast = system: MDA-MB-231 breast
# MDA-MB-435 = system: MDA-MB-435
# DU-145 prostate = system: DU-145 prostate
# PC-3 prostate = system: PC-3 prostate
structure (smiles),measurement,setting,value
O=C1CCNC/C1=C\c1ccccc1,TGI,786-0 renal,29 µM
same,TGI,OVCAR-4 ovarian,31.3 µM
same,TGI,NCI-H226 lung,60.8 µM
same,TGI,M14 melanoma,27.9 µM
same,TGI,HL-60(TB) leukemia,47.7 µM
same,TGI,HCT-15 colon,50.1 µM
same,TGI,DMS 273 small cell lung,69.1 µM
same,TGI,SK-MEL-5 melanoma,40.2 µM
same,TGI,U251 CNS,38 µM
same,TGI,SN12C renal,> 100 µM
same,TGI,DLD-1 colon,48.3 µM
same,TGI,HCC-2998 colon,42.8 µM
same,TGI,SK-OV-3 ovarian,> 100 µM
same,TGI,A498 renal,> 100 µM
same,TGI,OVCAR-3 ovarian,54.8 µM
same,TGI,KM12 colon,28.9 µM
same,TGI,OVCAR-8 ovarian,43.4 µM
same,TGI,EKVX NSCLC,> 100 µM
same,TGI,NCI-H460 lung,> 100 µM
same,TGI,RXF-631 renal,> 100 µM
same,TGI,ACHN renal,78 µM
same,TGI,NCI-H522 lung,23.4 µM
same,TGI,UO-31 renal,35.5 µM
same,TGI,SNB-19 CNS,46.4 µM
same,TGI,NCI-H23 lung,34.4 µM
same,TGI,OVCAR-5 ovarian,81.3 µM
same,TGI,XF 498 CNS,74.7 µM
same,TGI,K-562 leukemia,> 100 µM
same,TGI,SF-539 CNS,42.3 µM
same,TGI,UACC-257 melanoma,58.8 µM
same,TGI,A549 NSCLC,92.2 µM
same,TGI,M19-MEL melanoma,39.3 µM
same,TGI,HCT-116 colon,47.4 µM
same,TGI,HT29 colon,32.9 µM
same,TGI,UACC-62 melanoma,34.3 µM
same,TGI,LOX IMVI melanoma,35.5 µM
same,TGI,DMS 114 small cell lung,73.4 µM
same,TGI,SW-620 colon,95.3 µM
same,TGI,MOLT-4 leukemia,> 100 µM
same,TGI,IGROV1 ovarian,> 100 µM
same,TGI,SK-MEL-2 melanoma,> 100 µM
same,TGI,SR leukemia,> 100 µM
same,TGI,SF-268 CNS,45 µM
same,TGI,SK-MEL-28 melanoma,35.1 µM
same,TGI,COLO 205 colon,> 100 µM
same,TGI,LXFL 529 NSCLC,34.5 µM
same,TGI,RPMI-8226 leukemia,83.6 µM
same,TGI,TK-10 renal,61.2 µM
same,TGI,CAKI-1 renal,> 100 µM
same,TGI,HOP-62 NSCLC,79 µM
same,TGI,SF-295 CNS,67.8 µM
same,TGI,KM20L2 colon,28.4 µM
same,TGI,SNB-75 CNS,> 100 µM
same,TGI,SNB-78 CNS,> 100 µM
Cc1c(CCCl)c(Cl)n2c(nc3ccccc32)c1C#N,TGI,RXF 393 renal,3 µM
same,TGI,OVCAR-4 ovarian,3.29 µM
same,TGI,NCI-H226 lung,2.93 µM
same,TGI,M14 melanoma,3.06 µM
same,TGI,HL-60(TB) leukemia,0.627 µM
same,TGI,HCT-15 colon,1.98 µM
same,TGI,DMS 273 small cell lung,3.15 µM
same,TGI,MALME-3M melanoma,2.62 µM
same,TGI,SK-MEL-5 melanoma,2.35 µM
same,TGI,U251 CNS,2.34 µM
same,TGI,SN12C renal,1.5 µM
same,TGI,BT-549 breast,3.98 µM
same,TGI,DLD-1 colon,2.44 µM
same,TGI,HCC-2998 colon,2.94 µM
same,TGI,SK-OV-3 ovarian,> 56.4 µM
same,TGI,A498 renal,2.83 µM
same,TGI,OVCAR-3 ovarian,2.82 µM
same,TGI,KM12 colon,2.54 µM
same,TGI,HOP-92 NSCLC,2.99 µM
same,TGI,OVCAR-8 ovarian,2.38 µM
same,TGI,EKVX NSCLC,25.3 µM
same,TGI,NCI-H460 lung,1.69 µM
same,TGI,RXF-631 renal,2.18 µM
same,TGI,ACHN renal,2.14 µM
same,TGI,NCI-H522 lung,1.46 µM
same,TGI,UO-31 renal,2.56 µM
same,TGI,SNB-19 CNS,5.88 µM
same,TGI,CCRF-CEM leukemia,3.36 µM
same,TGI,NCI-H23 lung,2.37 µM
same,TGI,MCF7 breast,5.28 µM
same,TGI,OVCAR-5 ovarian,4.1 µM
same,TGI,K-562 leukemia,3.34 µM
same,TGI,SF-539 CNS,2.81 µM
same,TGI,UACC-257 melanoma,3.07 µM
same,TGI,HOP-18 NSCLC,3.95 µM
same,TGI,A549 NSCLC,> 100 µM
same,TGI,MDA-MB-231 breast,17.9 µM
same,TGI,M19-MEL melanoma,9.76 µM
same,TGI,HCT-116 colon,0.891 µM
same,TGI,HT29 colon,4.35 µM
same,TGI,UACC-62 melanoma,2.51 µM
same,TGI,LOX IMVI melanoma,0.878 µM
same,TGI,DMS 114 small cell lung,2.84 µM
same,TGI,SW-620 colon,0.801 µM
same,TGI,MOLT-4 leukemia,0.653 µM
same,TGI,MDA-MB-435,2.22 µM
same,TGI,IGROV1 ovarian,3.36 µM
same,TGI,SK-MEL-2 melanoma,2.78 µM
same,TGI,SR leukemia,0.649 µM
same,TGI,SF-268 CNS,11.5 µM
same,TGI,SK-MEL-28 melanoma,4.97 µM
same,TGI,COLO 205 colon,2.47 µM
same,TGI,LXFL 529 NSCLC,1.63 µM
same,TGI,DU-145 prostate,4.56 µM
same,TGI,PC-3 prostate,2.4 µM
same,TGI,RPMI-8226 leukemia,0.385 µM
same,TGI,TK-10 renal,3.84 µM
same,TGI,CAKI-1 renal,2.25 µM
same,TGI,HOP-62 NSCLC,4.8 µM
same,TGI,SF-295 CNS,4.34 µM
same,TGI,KM20L2 colon,2.11 µM
same,TGI,SNB-75 CNS,14.1 µM
same,TGI,SNB-78 CNS,> 100 µM
